Reference: patent US20130252988A1, “COMPOSITIONS AND METHODS FOR TREATING MYELOFIBROSIS” (TARGEGEN, INC., priority 2010, published 2013)
“Also recorded” adds a separate entry of the source. Counter-ions that a name gives are not always drawn. Like-named read-outs stand apart in the source and are kept apart here.

Legend:
Assay type in all cases: in vivo, human
[1] = system: IL-6, IL-8, IL-2 and TNF-a; assay: Cytokine levels, multiplexed sandwich ELISAs
Experimental: Samples for cytokine measurement were collected at baseline and every 4 weeks thereafter. Cytokine levels were measured using multiplexed sandwich ELISAs (Millipore, St. Charles, Mo.).

[2] = Body weight during study treatment
bone marrow = assay: Bone marrow histology (cellularity, fibrosis)
Experimental: (§1) Responses were measured every 4 weeks per International Working Group for MPN Research and Treatment (IWG-MRT) criteria (Tefferi A et al., Blood 108:1497-1503, 2006). Assessment of bone marrow histology was performed at baseline and every 24 weeks of therapy. Changes in JAK2V617F allele burden in the granulocyte fraction of peripheral blood were measured as previously described (Kittur J et al., Cancer 109:2279-2284, 2007); the assessments were at baseline and every 4 weeks during the first 6 cycles, and every 6th cycle of therapy in the extension study.

[3] = Plasma pharmacokinetics of TG101348, non-compartmental analysis; settings: for AUC(0-t) / Cmax / half-life / Tmax: human, plasma; for Tmax: median
Experimental: The concentration-time curves of TG101348 in plasma were evaluated by a non-compartmental analysis (with the use of WinNonlin® software, version 5.2).

JAK2V617F allele burden = JAK2V617F allele burden in the granulocyte fraction of peripheral blood
Experimental: as §1

[4] = system: subjects with myelofibrosis (palpable splenomegaly); assay: Palpable spleen size / splenomegaly response (IWG-MRT criteria); design: Clinical improvement (IWG response), subjects by 20 weeks: reference not given here; settings: for Subjects with =50% decrease in palpable spleen size persistent for at least 8 weeks (Clinical Improvement, CI) / Subjects with a minimum 25% decrease in palpable spleen size: by cycle 6; for Subjects with a minimum 25% decrease in palpable spleen size: intent-to-treat; for Subjects with spleen response (CI): by cycle 12
Experimental: as §1

[5] = oral, 30 mg/day (n = 3), multiple daily doses, Cycle 1, Day 28, mean
[6] = oral, 60 mg/day (n = 3), multiple daily doses, Cycle 1, Day 28, mean
[7] = oral, 120 mg/day (n = 3), multiple daily doses, Cycle 1, Day 28, mean
[8] = oral, 240 mg/day (n = 3), multiple daily doses, Cycle 1, Day 28, mean
[9] = oral, 360 mg/day (n = 3), multiple daily doses, Cycle 1, Day 28, mean
[10] = oral, 520 mg/day (n = 3), multiple daily doses, Cycle 1, Day 28, mean
[11] = oral, 680 mg/day (n = 27), multiple daily doses, Cycle 1, Day 28, mean
[12] = oral, 800 mg/day (n = 5), multiple daily doses, Cycle 1, Day 28, mean
[13] = over a 27-fold increase in dose
[14] = 680 mg/day starting dose (N=37)
[15] = MTD cohort, subjects who completed 6 cycles

## Cc1cnc(Nc2ccc(OCCN3CCCC3)cc2)nc1Nc1cccc(S(=O)(=O)NC(C)(C)C)c1 [TG101348, N-tert-butyl-3-[(5-methyl-2-{[4-(2-pyrrolidin-1-ylethoxy)phenyl]amino}pyrimidin-4-yl)amino]benzenesulfonamide dihydrochloride monohydrate]
[1]; after treatment initiation, data not shown
  Serum EPO and TPO levels relative to baseline: increases in serum EPO and to a lesser extent TPO levels
[1]; cycle 6, 1 subject (101-039)
  Absolute difference in IL-2 from baseline: -1827 pg/mL
  Absolute difference in IL-6 from baseline: -4719 pg/mL
[1]; relative to baseline during treatment, dihydrochloride monohydrate
  Effect on levels of pro-inflammatory cytokines (IL-6, IL-2, IL-8, TNF-a): no significant changes on cytokine levels; also recorded: minimal effect on serum levels of proinflammatory cytokines; also recorded: no consistent changes
[2]; 6 Cycles, MTD Cohort (n = 28)
  Weight, change from baseline, median: 0.6 kg
  Weight, median: 77.7 kg
[2]; 6 Cycles, Overall (n = 43)
  Weight, change from baseline, median: 0.4 kg
  Weight, median: 76.9 kg
[2]; 12 Cycles, MTD Cohort (n = 26)
  Weight, change from baseline, median: 0.35 kg
  Weight, median: 76.5 kg
[2]; 12 Cycles, Overall (n = 36)
  Weight, change from baseline, median: 0.7 kg
  Weight, median: 76.1 kg
[2]; end of 6 and 12 cycles, overall and MTD cohorts
  Median body weight relative to baseline: stable relative to baseline
Bone marrow; after 18 cycles, person, V617F negative PMF, 3+ at baseline, starting dose 240, follow-up 440 mg/day
  Bone marrow fibrosis grade: 0
Bone marrow; after 18 cycles, person, V617F negative PMF, 60% at baseline, starting dose 30, follow-up 520 mg/day
  Bone marrow cellularity: 5-10%
Bone marrow; preliminary observations
  BM cellularity and reticulin fibrosis with extended treatment: reduction in BM cellularity and reticulinfibrosis
[3]; 30 to 800 mg/day
  Dose proportionality of plasma PK parameters (Cmax and AUC0-t): greater than dose-proportional increases
[3]; [5]
  AUC(0-t): 807 ng·h/mL
  Cmax: 81.8 ng/mL
[3]; oral, 30 mg/day (n = 3), multiple daily doses, Cycle 1, Day 28, mean, read-out: T1/2 (terminal half-life) (converted)
  half-life: 20.9 h
[3]; oral, 30 mg/day (n = 3), multiple daily doses, Cycle 1, Day 28
  Tmax: 2 h
[3]; [6]
  AUC(0-t): 2430 ng·h/mL
  Cmax: 257 ng/mL
[3]; oral, 60 mg/day (n = 3), multiple daily doses, Cycle 1, Day 28, mean, read-out: T1/2 (terminal half-life) (converted)
  half-life: 15.7 h
[3]; oral, 60 mg/day (n = 3), multiple daily doses, Cycle 1, Day 28
  Tmax: 1 h
[3]; [7]
  AUC(0-t): 7650 ng·h/mL
  Cmax: 557 ng/mL
[3]; oral, 120 mg/day (n = 3), multiple daily doses, Cycle 1, Day 28, mean, read-out: T1/2 (terminal half-life) (converted)
  half-life: 24.4 h
[3]; oral, 120 mg/day (n = 3), multiple daily doses, Cycle 1, Day 28
  Tmax: 2 h
[3]; [8]
  AUC(0-t): 26200 ng·h/mL
  Cmax: 1800 ng/mL
[3]; oral, 240 mg/day (n = 3), multiple daily doses, Cycle 1, Day 28, mean, read-out: T1/2 (terminal half-life) (converted)
  half-life: 20.8 h
[3]; oral, 240 mg/day (n = 3), multiple daily doses, Cycle 1, Day 28
  Tmax: 2 h
[3]; [9]
  AUC(0-t): 23900 ng·h/mL
  Cmax: 1720 ng/mL
[3]; oral, 360 mg/day (n = 3), multiple daily doses, Cycle 1, Day 28, mean, read-out: T1/2 (terminal half-life) (converted)
  half-life: 21.4 h
[3]; oral, 360 mg/day (n = 3), multiple daily doses, Cycle 1, Day 28
  Tmax: 2 h
[3]; [10]
  AUC(0-t): 61700 ng·h/mL
  Cmax: 3890 ng/mL
[3]; oral, 520 mg/day (n = 3), multiple daily doses, Cycle 1, Day 28, mean, read-out: T1/2 (terminal half-life) (converted)
  half-life: 20.9 h
[3]; oral, 520 mg/day (n = 3), multiple daily doses, Cycle 1, Day 28
  Tmax: 4 h
[3]; [11]
  AUC(0-t): 55100 ng·h/mL
  Cmax: 3060 ng/mL
[3]; oral, 680 mg/day (n = 27), multiple daily doses, Cycle 1, Day 28, mean, read-out: T1/2 (terminal half-life) (converted)
  half-life: 33.7 h
[3]; oral, 680 mg/day (n = 27), multiple daily doses, Cycle 1, Day 28
  Tmax: 4 h
[3]; [12]
  AUC(0-t): 70800 ng·h/mL
  Cmax: 4380 ng/mL
[3]; oral, 800 mg/day (n = 5), multiple daily doses, Cycle 1, Day 28, mean, read-out: T1/2 (terminal half-life) (converted)
  half-life: 24 h
[3]; oral, 800 mg/day (n = 5), multiple daily doses, Cycle 1, Day 28
  Tmax: 2.25 h
[3]; oral, across all doses, read-out: Terminal phase half-life at steady state
  half-life: 16 to 34 h
[3]; oral, once daily
  Time after dosing at which peak plasma concentration was achieved: 1 to 4 h
[3]; [13]
  Increase in mean steady-state AUC0-t: ~88 fold
  Increase in mean steady-state Cmax: approximately 54 fold
JAK2V617F allele burden; 12 cycles, 100% allele burden at baseline
  Subjects exhibiting no change in allele burden: 2
JAK2V617F allele burden; 23 subjects with baseline >20% (baseline median 60%), after 6 cycles, range 4%-100%
  Median JAK2V617F allele burden: 31%
JAK2V617F allele burden; 23 subjects with baseline >20% (baseline median 60%), after 12 cycles, range 7%-100%
  Median JAK2V617F allele burden: 32%
JAK2V617F allele burden; 48 evaluable VF-positive patients (21 patients), last available follow-up
  Patients with =50% reduction in VF allele burden: 44%
JAK2V617F allele burden; 48 evaluable VF-positive patients, last available follow-up
  Median decrease in granulocyte mutant allele burden: 48%
JAK2V617F allele burden; all mutation-positive subjects (baseline median 20%), after 6 cycles, range 0%-100%
  Median JAK2V617F allele burden: 17%
JAK2V617F allele burden; all mutation-positive subjects (baseline median 20%), after 12 cycles, range 0%-100%
  Median JAK2V617F allele burden: 19%
JAK2V617F allele burden; all mutation-positive subjects (n=51), after 6 cycles (p=0.04) and 12 cycles (p=0.01)
  Change in JAK2V617F allele burden versus pre-study baseline: significant decrease
JAK2V617F allele burden; baseline >20%, 12 cycles, 7 subjects
  Subjects with =50% decrease in JAK2V617F: 39%
JAK2V617F allele burden; baseline >20%, 12 cycles, Three subjects (7%, 18%, and 22%)
  Subjects exhibiting an increase in allele burden: 17%
JAK2V617F allele burden; baseline >20%, 18 subjects who completed 12 cycles, range 29% to 82%
  Median decrease in JAK2V617F allele burden: 50%
JAK2V617F allele burden; baseline >20%, after 6 cycles, 4 subjects (18%, 21%, 30%, and 58%)
  Subjects exhibiting an increase in JAK2V617F allele burden: 20%
JAK2V617F allele burden; baseline >20%, after 6 cycles, 9 subjects
  Subjects with =50% decrease in JAK2V617F allele burden: 45%
JAK2V617F allele burden; baseline >20%, after 6 cycles, 16 of 20 subjects
  Subjects exhibiting a decrease in JAK2V617F allele burden: 80%
JAK2V617F allele burden; baseline >20%, after 6 cycles, 16 subjects, range 6% to 96%
  Median decrease in JAK2V617F allele burden: 61%
JAK2V617F allele burden; group who started treatment at =680 mg
  Patients with =50% reduction in VF allele burden: 48%
JAK2V617F allele burden; subgroup with baseline allele burden >20% (n=23), after 6 cycles (p=0.002) and 12 cycles (p=0.002), dihydrochloride monohydrate
  Change in JAK2V617F allele burden versus pre-study baseline: significant and even more pronounced decrease; also recorded: significant decrease
JAK2V617F allele burden; subjects with baseline >20% (N=22), FIG. 6
  Subjects with decreased JAK2 V617F allele burden: 59%
[4]; [14]
  Clinical improvement (IWG response), subjects by 12 weeks: 56%
  Clinical improvement (IWG response), subjects by 20 weeks: 100%
  Subjects who achieved clinical improvement based on reduction of palpable splenomegaly (IWG response): 49%
[4]; Example 2 conclusions
  Complete response of splenomegaly: ~30%
  Proportion achieving =50% reduction in palpable splenomegaly: two-thirds
[4]; MTD cohort
  Mean (standard deviation) duration of spleen response per IWG-MRT criteria: 288 (±76) days
  Subjects with =50% decrease in palpable spleen size persistent for at least 8 weeks (Clinical Improvement, CI): 45%
  Subjects with a minimum 25% decrease in palpable spleen size: 65%
  Subjects with spleen response (CI): 50%
[4]; MTD cohort, range 41-170
  Median time to CI: 113 days
[4]; [15]
  Subjects in whom the spleen became non palpable: 31%
  Subjects with =25% reduction in palpable spleen size: 90%
  Subjects with =50% reduction in palpable spleen size: 66%
[4]; Three of 4 subjects who completed 6 cycles
  Subjects with JAK2V617F-negative MF who achieved CI: 75%
[4]; across doses, range 41 to 171
  Median time to CI: 141 days
[4]; at 3 months, 33 patients who started at =680 mg and completed at least 3 cycles, 22 patients
  Patients with reduction in palpable spleen size of at least 50%: 67%
[4]; at 3 months, 33 patients who started at =680 mg, 9 patients
  Patients in whom the spleen became non-palpable: 27%
[4]; at the time of data collection (Example 2)
  Relapse or disease progression: no relapse or disease progression
[4]; overall
  Subjects with =50% decrease in palpable spleen size persistent for at least 8 weeks (Clinical Improvement, CI): 39%
  Subjects with spleen response (CI): 48%
  Mean (standard deviation) duration of spleen response per IWG-MRT criteria: 315 (±129) days
[4]; overall (36 subjects)
  Subjects with a minimum 25% decrease in palpable spleen size: 61%
[4]; in vivo
  Lowest starting dose at which CI was observed: 240 mg/day
[4]; one subject with JAK2V617F-positive PMF, started at 680 mg/day, 9 cm before
  Palpable spleen size after treatment: 0 cm
[4]; rapid, generally seen within
  Onset of spleen response: ≤ 2 cycles
